Reference: article PMC9138505, “Small Molecule 20S Proteasome Enhancer Regulates MYC Protein Stability and Exhibits Antitumor Activity in Multiple Myeloma” (Biomedicines, 2022)
Values joined by “and” are separate entries in the source; they are usually repeats but may differ in a detail not shown here. Equal values may be shown once.

System: RPMI-8226 cells
Experiment: Gene expression profiling, NanoString nCounter PanCancer Pathways Panel, ROSALIND analysis
Assay type: cell-based, human
Settings: RPMI-8226, TCH-165 samples 1-3
Description: RPMI-8226 cells were treated with vehicle or TCH-165 (10 μM) for 4 h. Total RNA was obtained using the mirVana miRNA Isolation Kit, with phenol (Thermofisher Scientific; AM1560; Waltham, MA, USA). Total RNA was quantified by Qubit (Thermofisher Scientific; Q32855; Waltham, MA, USA). and gene expression was evaluated against the nCounter® PanCancer Pathways Panel^TM according to the standard NanoString protocol.
Data were analyzed by ROSALIND® [36] with a hyperscale architecture developed by ROSALIND, Inc. (San Diego, CA, USA). Normalization, fold changes and p-values were calculated using criteria provided by NanoString. ROSALIND follows the nCounter® Advanced Analysis protocol of dividing counts within a lane by the geometric mean of the normalizer probes from the same lane. Housekeeping probes to be used for normalization are selected based on the geNorm algorithm, as implemented in the NormqPCR R library. Fold changes and p-values are calculated using the fast method as described in the nCounter Advanced Analysis 2.0 User Manual. The p-value adjustment is performed using the Benjamini–Hochberg method of estimating false discovery rates (FDR). Clustering of genes for the final heatmap of differentially expressed genes was done using the PAM (Partitioning Around Medoids) method using the fpc R library. Hypergeometric distribution was used to analyze the enrichment of pathways, gene ontology, domain structure and other ontologies. The topGO R library was used to determine local similarities and dependencies between GO terms in order to perform Elim pruning correction. Several database sources were referenced for enrichment analysis, including Interpro [40], NCBI [41], MSigDB [42, 43], REACTOME [44], WikiPathways. Enrichment was calculated relative to a set of background genes relevant to the experiment.

## CCOC(=O)[C@]1(c2ccccc2)N=C(c2ccc(OC)cc2)N(Cc2ccccc2)[C@@H]1c1ccc(NCc2ccccc2)cc1 [TCH-165]
  RPA3 normalized gene expression: 6.234 and 6.077 and 5.975
  RPS6KA5 normalized gene expression: 8.162 and 8.249 and 8.109
  RPS6KA6 normalized gene expression: 4.308 and 4.154 and 4.653
  RPS27A normalized gene expression: 16.3114 and 16.3789 and 16.3612
  RRAS2 normalized gene expression: 6.59 and 6.242 and 6.0682
  RUNX1T1 normalized gene expression: 4.649 and 5.3768 and 5.0682
  RUNX1 normalized gene expression: 7.156 and 7.154 and 7.31
  RXRG normalized gene expression: 5.758 and 5.569 and 5.1271
  SETBP1 normalized gene expression: 9.152 and 8.96 and 8.955
  SETD2 normalized gene expression: 9.224 and 9.1619 and 9.096
  SF3B1 normalized gene expression: 10.9301 and 10.7965 and 10.7773
  SFN normalized gene expression: 7.723 and 7.476 and 7.668
  SFRP1 normalized gene expression: 5.401 and 5.0613 and 4.731
  SFRP2 normalized gene expression: 4.723 and 4.427 and 4.613
  SFRP4 normalized gene expression: 1.986 and 2.3768 and 2.483
  SGK2 normalized gene expression: 4.401 and 4.324 and 4.0682
  SHC1 normalized gene expression: 10.583 and 10.7262 and 10.7216
  SHC2 normalized gene expression: 3.723 and 3.962 and 3.653
  SHC3 normalized gene expression: 6.308 and 6.364 and 6.251
  SIN3A normalized gene expression: 9.8539 and 9.738 and 9.646
  SIRT4 normalized gene expression: 5.156 and 4.739 and 5.238
  SIX1 normalized gene expression: 3.571 and 3.3768 and 4.1271
  SKP1 normalized gene expression: 12.8613 and 12.7826 and 12.7408
  SKP2 normalized gene expression: 8.831 and 8.717 and 8.705
  SMAD2 normalized gene expression: 9.453 and 9.37 and 9.493
  SMAD3 normalized gene expression: 6.723 and 6.646 and 6.759
  SMAD4 normalized gene expression: 9.445 and 9.475 and 9.381
  SMAD9 normalized gene expression: 4.208 and 3.657 and 4.238
  SMARCA4 normalized gene expression: 10.8723 and 10.9931 and 10.958
  SMARCB1 normalized gene expression: 9.431 and 9.4165 and 9.399
  SMC1A normalized gene expression: 10.4464 and 10.4079 and 10.3505
  SMC1B normalized gene expression: 4.401 and 3.739 and 3.731
  SMC3 normalized gene expression: 10.9533 and 10.9237 and 10.9519
  SMO normalized gene expression: 5.986 and 5.657 and 5.341
  SOCS1 normalized gene expression: 6.892 and 6.769 and 6.683
  SOCS2 normalized gene expression: 5.955 and 5.476 and 5.5707
  SOCS3 normalized gene expression: 5.827 and 5.351 and 5.613
  SOS1 normalized gene expression: 8.45 and 8.321 and 8.235
  SOS2 normalized gene expression: 7.434 and 7.338 and 7.36
  SOST normalized gene expression: 3.86 and 3.3768 and 3.805
  SOX9 normalized gene expression: 5.044 and 5.093 and 4.731
  SP1 normalized gene expression: 7.695 and 7.694 and 7.736
  SPOP normalized gene expression: 6.308 and 6.324 and 6.0531
  SPP1 normalized gene expression: 11.9193 and 11.8738 and 11.9244
  SPRY1 normalized gene expression: 4.308 and 4.154 and 4.184
  SPRY2 normalized gene expression: 5.793 and 5.154 and 5.0682
  SRSF2 normalized gene expression: 10.5286 and 10.321 and 10.2662
  SSX1 normalized gene expression: 4.571 and 4.614 and 4.341
  STAG2 normalized gene expression: 11.0854 and 11.0452 and 11.0734
  STAT1 normalized gene expression: 8.92 and 8.846 and 9.0757
  STAT3 normalized gene expression: 9.132 and 9.111 and 9.089
  STAT4 normalized gene expression: 7.259 and 7.045 and 7.149
  STK11 normalized gene expression: 7.868 and 7.592 and 7.623
  STMN1 normalized gene expression: 12.569 and 12.5392 and 12.5363
  SYK normalized gene expression: 10.2633 and 10.2568 and 10.1565
  TCF3 normalized gene expression: 9.548 and 9.673 and 9.547
  TCL1B normalized gene expression: 2.986 and 2.569 and 2.943
  TET2 normalized gene expression: 7.142 and 7.021 and 6.918
  TFDP1 normalized gene expression: 10.7659 and 10.7019 and 10.7109
  TGFB1 normalized gene expression: 8.78 and 8.675 and 8.641
  TGFB2 normalized gene expression: 3.86 and 3.27 and 3.943
  TGFB3 normalized gene expression: 4.986 and 4.891 and 4.483
  TGFBR2 normalized gene expression: 7.169 and 7.004 and 6.787
  THBS1 normalized gene expression: 5.445 and 4.927 and 4.769
  THBS4 normalized gene expression: 3.208 and 2.569 and 3.291
  TIAM1 normalized gene expression: 5.793 and 5.476 and 5.414
  TLR2 normalized gene expression: 6.355 and 5.855 and 5.876
  TLR4 normalized gene expression: 8.52 and 8.18 and 8.197
  TLX1 normalized gene expression: 3.86 and 4.427 and 4.1271
  TMPRSS2 normalized gene expression: 6.182 and 6.093 and 6.1126
  TNC normalized gene expression: 4.723 and 4.7789 and 4.39
  TNF normalized gene expression: 4.986 and 4.817 and 5.0682
  TNFAIP3 normalized gene expression: 7.658 and 7.488 and 7.528
  TNFRSF10A normalized gene expression: 7.986 and 7.827 and 7.893
  TNFRSF10B normalized gene expression: 6.61 and 6.5 and 6.602
  TNFRSF10C normalized gene expression: 4.101 and 3.891 and 3.943
  TNFRSF10D normalized gene expression: 6.827 and 6.476 and 6.461
  TNFSF10 normalized gene expression: 8.202 and 8.1619 and 8.225
  TNR normalized gene expression: 5.686 and 5.297 and 5.5707
  TP53 normalized gene expression: 10.0117 and 9.981 and 9.929
  TPO normalized gene expression: 4.924 and 5.184 and 5.156
  TSC1 normalized gene expression: 8.714 and 8.273 and 8.399
  TSHR normalized gene expression: 4.649 and 4.476 and 4.39
  TSPAN7 normalized gene expression: 6.776 and 6.891 and 6.539
  TTK normalized gene expression: 9.89 and 9.8374 and 9.804
  U2AF1 normalized gene expression: 12.4063 and 12.4515 and 12.4562
  UBB normalized gene expression: 12.5802 and 12.4733 and 12.4875
  UBE2T normalized gene expression: 10.5402 and 10.5496 and 10.5687
  UTY normalized gene expression: 3.86 and 4.093 and 4.0682
  VEGFA normalized gene expression: 10.7951 and 10.7989 and 10.8309
